In PubChem BioAssay (NCI):
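Exposure lasted 48 hours, with cells grown in 96-well plates and compounds tested at five concentrations. TGI: concentration producing complete growth inhibition.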

Experiments:
Assay in all cases: inhibition of tumour cell growth, NCI panel, 48 h
MOLT-4 leukemia = system: MOLT-4 leukemia
NCI-H460 lung = system: NCI-H460 lung
HL-60(TB) leukemia = system: HL-60(TB) leukemia
A498 renal = system: A498 renal
PC-3 prostate = system: PC-3 prostate
MALME-3M melanoma = system: MALME-3M melanoma
TK-10 renal = system: TK-10 renal
OVCAR-8 ovarian = system: OVCAR-8 ovarian
MDA-N = system: MDA-N
EKVX NSCLC = system: EKVX NSCLC
HCT-116 colon = system: HCT-116 colon
K-562 leukemia = system: K-562 leukemia
MCF7 breast = system: MCF7 breast
DU-145 prostate = system: DU-145 prostate
RPMI-8226 leukemia = system: RPMI-8226 leukemia
SK-MEL-28 melanoma = system: SK-MEL-28 melanoma
IGROV1 ovarian = system: IGROV1 ovarian
SW-620 colon = system: SW-620 colon
T-47D breast = system: T-47D breast
CCRF-CEM leukemia = system: CCRF-CEM leukemia
HOP-62 NSCLC = system: HOP-62 NSCLC
ACHN renal = system: ACHN renal
UACC-257 melanoma = system: UACC-257 melanoma
NCI-H522 lung = system: NCI-H522 lung
SF-268 CNS = system: SF-268 CNS
SF-295 CNS = system: SF-295 CNS
U251 CNS = system: U251 CNS
SNB-19 CNS = system: SNB-19 CNS
MDA-MB-231 breast = system: MDA-MB-231 breast
OVCAR-3 ovarian = system: OVCAR-3 ovarian
M14 melanoma = system: M14 melanoma
A549 NSCLC = system: A549 NSCLC
HCT-15 colon = system: HCT-15 colon
SK-MEL-5 melanoma = system: SK-MEL-5 melanoma
LOX IMVI melanoma = system: LOX IMVI melanoma
OVCAR-5 ovarian = system: OVCAR-5 ovarian
HCC-2998 colon = system: HCC-2998 colon
COLO 205 colon = system: COLO 205 colon
UACC-62 melanoma = system: UACC-62 melanoma
CAKI-1 renal = system: CAKI-1 renal
HT29 colon = system: HT29 colon
OVCAR-4 ovarian = system: OVCAR-4 ovarian
NCI/ADR-RES ovarian = system: NCI/ADR-RES ovarian
MDA-MB-435 = system: MDA-MB-435
UO-31 renal = system: UO-31 renal
SNB-75 CNS = system: SNB-75 CNS
SK-MEL-2 melanoma = system: SK-MEL-2 melanoma
786-0 renal = system: 786-0 renal
HOP-92 NSCLC = system: HOP-92 NSCLC
SN12C renal = system: SN12C renal
RXF 393 renal = system: RXF 393 renal
NCI-H23 lung = system: NCI-H23 lung
KM12 colon = system: KM12 colon
NCI-H226 lung = system: NCI-H226 lung
BT-549 breast = system: BT-549 breast
SR leukemia = system: SR leukemia
HS 578T breast = system: HS 578T breast
SK-OV-3 ovarian = system: SK-OV-3 ovarian
SF-539 CNS = system: SF-539 CNS

Measured: TGI

CC(=O)NC(CCCCNC(=O)OC(C)(C)C)C(=O)O (stereo not drawn)
not listed: SNB-75 CNS | SK-MEL-2 melanoma | 786-0 renal | HOP-92 NSCLC | SN12C renal | RXF 393 renal | NCI-H23 lung | KM12 colon | NCI-H226 lung | BT-549 breast | SR leukemia | HS 578T breast | SK-OV-3 ovarian | SF-539 CNS
> 100 µM: all other assays above

CN(C)CS/C(N)=N\C(O)C(Cl)(Cl)Cl (stereo not drawn)
not listed: HL-60(TB) leukemia | MCF7 breast | RPMI-8226 leukemia | COLO 205 colon | SK-OV-3 ovarian | SF-539 CNS
> 100 µM: all other assays above

O=c1[nH]c(=O)n(C2OC(CO)C(O)C2O)cc1OCCc1ccccc1 (stereo not drawn)
not listed: K-562 leukemia | RPMI-8226 leukemia | U251 CNS | UO-31 renal | SNB-75 CNS | BT-549 breast
> 100 µM: all other assays above

COP(=O)(OC)C(O)/C=C/c1ccco1 (stereo not drawn)
not listed: NCI-H460 lung | TK-10 renal | CCRF-CEM leukemia | MDA-MB-231 breast | HCC-2998 colon | SNB-75 CNS | SF-539 CNS
> 100 µM: all other assays above
